In US8236937B2, “Methods and compositions for the detection and isolation of ligands” (InDanio Bioscience Inc., priority 2005, dated 2012):

Tests used:
[1] = target: T1, GAL4-DHR96 (Drosophila hormone receptor 96) fusion protein (Drosophila melanogaster, UniProt Q24143); experiment: Ligand trap GFP reporter screen in transgenic Drosophila embryos (GAL4-DHR96, UAS-GFP); format: in vivo; details: 10^−5 molar vs control media, FIG. 7 panel A
T1 construct: expressed in transfected cells; host or cells: transgenic Drosophila embryos carrying GAL4-DHR96 and a UAS-GFP reporter
T1 sequence (Q24143 483-723 limits assumed): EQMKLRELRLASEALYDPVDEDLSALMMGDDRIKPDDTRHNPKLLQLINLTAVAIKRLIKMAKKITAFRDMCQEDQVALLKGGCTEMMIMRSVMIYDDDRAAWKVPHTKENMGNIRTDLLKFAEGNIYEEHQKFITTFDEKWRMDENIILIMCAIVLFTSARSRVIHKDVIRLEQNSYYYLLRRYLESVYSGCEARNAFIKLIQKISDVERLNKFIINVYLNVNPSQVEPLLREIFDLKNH
Text: CITCO is a component of a small molecule library used to screen for novel DHR96 ligands.

[2] = test system: fish glucocorticoid receptor (GR); details: agonist; cited from earlier work

Compound	GFP reporter activation / ligand activity at DHR96 [1]	Transcriptional activity of fish GR in the presence of ligand [2]
Clc1ccc(-c2nc3sccn3c2/C=N/OCc2ccc(Cl)c(Cl)c2)cc1 [CITCO]	first example of a DHR96-specific ligand	
C[C@]12CCC(=O)C=C1CC[C@@H]1[C@@H]2[C@@H](O)C[C@@]2(C)[C@H]1CC[C@]2(O)C(=O)CO [cortisol]		able to induce transcriptional activity
